Test results as given in patent publication US5734012A, “Cyclic motilin-like polypeptides with gastrointestinal motor stimulating activity” (Ohmeda Pharmaceutical Products Division Inc., priority 1996, dated 1998).
Like-named read-outs stand apart in the source and are kept apart here. Positions of bridges follow the written chain, without caps; N, C: chain ends. Non-standard residues stand in square brackets, D forms with d. Residues, ends and D or L forms follow the SMILES beside them. *: point of attachment. X1 = C[N+](C)(C)[C@@H](Cc1ccccc1)C(=O)*; NMeF = CN[C@@H](Cc1ccccc1)C(=O)O; dNMeF = CN[C@H](Cc1ccccc1)C(=O)O

Experiments:
motilin receptor = biological target: T1, motilin receptor (Oryctolagus cuniculus, UniProt G1T803); experiment: Motilin receptor binding affinity (displacement of [125I-Tyr7,Nle13]motilin(porcine)); parameters: species or system rabbit
T1 construct: from tissue; host or cells: rabbit antral smooth muscle membranes
T1 sequence (G1T803 1-400): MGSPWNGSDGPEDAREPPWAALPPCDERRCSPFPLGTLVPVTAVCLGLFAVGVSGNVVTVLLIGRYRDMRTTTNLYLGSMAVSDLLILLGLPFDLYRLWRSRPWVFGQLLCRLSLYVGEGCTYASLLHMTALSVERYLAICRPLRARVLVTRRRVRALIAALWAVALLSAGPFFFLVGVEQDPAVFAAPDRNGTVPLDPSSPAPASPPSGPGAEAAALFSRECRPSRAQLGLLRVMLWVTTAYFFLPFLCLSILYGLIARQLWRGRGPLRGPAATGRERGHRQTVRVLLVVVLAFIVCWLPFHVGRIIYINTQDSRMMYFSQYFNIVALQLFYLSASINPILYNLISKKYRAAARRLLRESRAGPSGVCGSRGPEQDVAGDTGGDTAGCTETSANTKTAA
Method: The motilin receptor binding affinity of the peptides of this invention was determined by using the general procedure of Bormans, Peeters and Vantrappen, Regul. […] Fitting was performed using the iterative least-squares procedure of the SAS-software package (SAS Institute, Inc., Cary, N.C., USA).

[1] = biological target: rabbit duodenal smooth muscle strip (Oryctolagus cuniculus, UniProt G1T803); experiment: Rabbit duodenal smooth muscle strip tissue bath assay (contractility); format: cell-based; settings: negative logarithm of dose giving 50% of maximal response to motilin; isotonic contraction of rabbit duodenum segments
rabbit duodenal smooth muscle strip, sequence (G1T803 1-400): as above
Method: The experimental protocol consisted of an equilibration period of 1 hour; a challenge with 10^-4 M acetylcholine followed by a wash-out period; a cumulative dose-response curve of a compound with, at the end, the addition of 10^-7 M motilin; and finally 10^-4 M acetylcholine. If the final response to 10^-4 M acetylcholine differed by more than 5% from the initial response, the results were discarded.

[2] = In vitro stability testing in 2% hog kidney homogenate; format: in vitro ADME; settings: for half-life at 0.5 mg/ml: pig, kidney or brush border membranes
Method: Like most small linear polypeptides, motilin is believed to be metabolized by the brush border cells of the kidney. Therefore, kidney homogenate was chosen as the model system for assessing the relative in vivo biostability of the peptides of this invention. All peptides to be studied were incubated in hog kidney (Pel Freeze, Inc., Rogers, Ark.) (2% w/v; final volume=4 mls; buffer=HEPES pH 7.0) at 25° C. […] In order to determine suitable incubation times and sampling intervals, two experiments were conducted with each polypeptide. The first run served as a rough estimate of peptide stability. All sampling was performed in duplicate. Sample volume was 180 μl. Sample clean-up was performed by addition of 20 μl of 100% TCA (final volume=200 μl; final TCA concentration=10%). The sample was vortexed from 5 to 10 seconds to ensure equilibration, then centrifuged to spin out the precipitated proteins. Analysis was carried out on a Waters HPLC system with autoinjector, a 5 μVydac C-18 analytical column, and a Waters 481 UV detector set at 214 nm. Injection volume was 80 μl. Initial solvent conditions were 20% acetonitrile / 80% (0.1%) TFA in Milli-Q water with a 35 minute gradient running to 63% acetonitrile / 37% (0.1%) TFA at 1 ml/min. Polypeptide substrate and metabolite peaks were ratioed to the internal standard and the duplicate sample ratios were averaged. The average ratio for the peptide substrate was expressed as a percentage and plotted versus time. First-order kinetics was assumed for data treatment. The rate of disappearance of the substrate was calculated using the Enzfitter program (Biosoft). Relative half-lives were determined from the relationship: […]

[3] = negative logarithm of concentration displacing 50% of [125I-Tyr7,Nle13]motilin(porcine) bound to rabbit antral smooth muscle membranes, read-out: pIC50 (converted)

Row | Compound | IC50 (motilin receptor; [3]) | pEC50 [1] | further results
1 | CC[C@H](C)[C@H](NC(=O)[C@@H]1CCCN1C(=O)[C@@H](NC(=O)[C@H](Cc1ccccc1)[N+](C)(C)C)C(C)C)C(=O)N[C@@H](Cc1ccccc1)C(=O)N[C@H](C(=O)N[C@@H](Cc1ccc(O)cc1)C(=O)NCC(=O)N[C@@H](CCC(=O)O)C(=O)N[C@H]1CC(=O)NCCCC[C@@H](C(=O)N[C@@H](CCCCN)C(N)=O)NC(=O)[C@H](CC(C)C)NC(=O)[C@H](CCCNC(=N)N)NC(=O)[C@H](C)NC1=O)[C@@H](C)O [SEQ ID NO:18, cyclo^10,14 [Me3 N^+ Phe^1,Asp^10,Ala^11,Leu^13,Lys^14,Lys^15]pMOT(1-15) amide] (X1-VPIFTYGEDARLKK-NH2; lactam 9-13) | 1.78 nM | 7.72 | half-life at 0.5 mg/ml ([2]; pH 7): 6.88 h
2 | CC[C@H](C)[C@H](NC(=O)[C@@H]1CCCN1C(=O)[C@@H](NC(=O)[C@H](Cc1ccccc1)NC)C(C)C)C(=O)N[C@@H](Cc1ccccc1)C(=O)N[C@H](C(=O)N[C@@H](Cc1ccc(O)cc1)C(=O)NCC(=O)N[C@@H](CCC(=O)O)C(=O)N[C@H]1CC(=O)NCCCC[C@@H](C(N)=O)NC(=O)[C@H](CC(C)C)NC(=O)[C@@H](CCCNC(=N)N)NC(=O)[C@H](C)NC1=O)[C@@H](C)O [SEQ ID NO:23, cyclo^10,14 [N-MePhe^1,Asp^10,Ala^11,D-Arg^12,Leu^13,Lys^14]pMOT(1-14) amide] (H-[NMeF]VPIFTYGEDA[dR]LK-NH2; lactam 10-14) | 11.5 nM | 7.89 | 
3 | CC[C@H](C)[C@H](NC(=O)[C@@H]1CCCN1C(=O)[C@@H](NC(=O)[C@H](Cc1ccccc1)[N+](C)(C)C)C(C)C)C(=O)N[C@@H](Cc1ccccc1)C(=O)N[C@H](C(=O)N[C@@H](Cc1ccc(O)cc1)C(=O)NCC(=O)N[C@@H](CCC(=O)O)C(=O)N[C@H]1CC(=O)NCCCC[C@@H](C(=O)N[C@H](CCCCN)C(N)=O)NC(=O)[C@H](CC(C)C)NC(=O)[C@H](CCCNC(=N)N)NC(=O)[C@H](C)NC1=O)[C@@H](C)O [SEQ ID NO:11, cyclo^10,14 [Me3 N^+ Phe^1,Asp^10,Ala^11,Leu^13,Lys^14,D-Lys^15]pMOT(1-15) amide] (X1-VPIFTYGEDARLK[dK]-NH2; lactam 9-13) | 1.23 nM | 7.89 | half-life at 0.5 mg/ml ([2]; pH 7): 7.28 h
4 | CC[C@H](C)[C@H](NC(=O)[C@@H]1CCCN1C(=O)[C@@H](NC(=O)[C@@H](Cc1ccccc1)NC)C(C)C)C(=O)N[C@@H](Cc1ccccc1)C(=O)N[C@H](C(=O)N[C@@H](Cc1ccc(O)cc1)C(=O)NCC(=O)N[C@@H](CCC(=O)O)C(=O)N[C@H]1CCC(=O)NCCCC[C@@H](C(N)=O)NC(=O)[C@H](CC(C)C)NC(=O)[C@H](CCCNC(=N)N)NC(=O)[C@H](CCC(N)=O)NC1=O)[C@@H](C)O [SEQ ID NO:13, cyclo^10,14 [N-Me-D-Phe^1,Glu^10,Leu^13,Lys^14 pMOT(1-14) amide] (H-[dNMeF]VPIFTYGEEQRLK-NH2; lactam 10-14) | 5.5 nM | 6.87 | 
5 | CC[C@H](C)[C@H](NC(=O)[C@@H]1CCCN1C(=O)[C@@H](NC(=O)[C@@H](N)Cc1ccccc1)C(C)C)C(=O)N[C@@H](Cc1ccccc1)C(=O)N[C@H](C(=O)N[C@@H](Cc1ccc(O)cc1)C(=O)NCC(=O)N[C@@H](CCC(=O)O)C(=O)N[C@@H](CC(C)C)C(=O)N[C@@H](CCC(N)=O)C(=O)N[C@@H](CCCNC(=N)N)C(=O)N[C@@H](CC(C)C)C(=O)N[C@@H](CCC(N)=O)C(=O)O)[C@@H](C)O [SEQ ID NO:27, [Leu^13]pMOT(1-14), reference compound] (H-FVPIFTYGELQRLQ-OH; N-terminus and C-terminus assumed) |  |  | half-life at 0.5 mg/ml ([2]; pH 7): 0.125 h
6 | CC[C@H](C)[C@H](NC(=O)[C@@H]1CCCN1C(=O)[C@@H](NC(=O)[C@H](Cc1ccccc1)[N+](C)(C)C)C(C)C)C(=O)N[C@@H](Cc1ccccc1)C(=O)N[C@H](C(=O)N[C@@H](Cc1ccc(O)cc1)C(=O)NCC(=O)N[C@@H](CCC(=O)O)C(=O)N[C@H]1CCC(=O)NCCCC[C@@H](C(N)=O)NC(=O)[C@H](CC(C)C)NC(=O)[C@H](CCCNC(=N)N)NC(=O)[C@H](CCC(N)=O)NC1=O)[C@@H](C)O [SEQ ID NO:14, cyclo^10,14 [Me3 N^+ Phe^1,Glu^10,Leu^13,Lys^14]pMOT(1-14) amide] (X1-VPIFTYGEEQRLK-NH2; lactam 9-13) |  | 7.38 | T1/2 ([2]; pH 7): > 3.33 h
7 | CC[C@H](C)[C@H](NC(=O)[C@@H]1CCCN1C(=O)[C@@H](NC(=O)[C@@H](N)Cc1ccccc1)C(C)C)C(=O)N[C@@H](Cc1ccccc1)C(=O)N[C@H](C(=O)N[C@@H](Cc1ccc(O)cc1)C(=O)NCC(=O)N[C@@H](CCC(=O)O)C(=O)N[C@H]1CC(=O)NCCCC[C@@H](C(N)=O)NC(=O)[C@H](CC(C)C)NC(=O)[C@H](CCCNC(=N)N)NC(=O)[C@H](CCC(N)=O)NC1=O)[C@@H](C)O [SEQ ID NO:6, cyclo^10,14 [Asp^10, Leu^13, Lys^14]pMOT(1-14)] (H-FVPIFTYGEDQRLK-NH2; lactam 10-14) | 1.51 nM | 7.77 | 
8 | CC[C@H](C)[C@H](NC(=O)[C@@H]1CCCN1C(=O)[C@@H](NC(=O)[C@H](Cc1ccccc1)NC)C(C)C)C(=O)N[C@@H](Cc1ccccc1)C(=O)N[C@H](C(=O)N[C@@H](Cc1ccc(O)cc1)C(=O)NCC(=O)N[C@@H](CCC(=O)O)C(=O)N[C@H]1CC(=O)NCCCC[C@@H](C(=O)N[C@@H](CCCCN)C(N)=O)NC(=O)[C@H](CC(C)C)NC(=O)[C@H](CCCNC(=N)N)NC(=O)[C@H](C)NC1=O)[C@@H](C)O [SEQ ID NO:8, cyclo^10,14 [N-MePhe^1,Asp^10,Ala^11,Leu^13,Lys^14,Lys^15]pMOT(1-15) amide] (H-[NMeF]VPIFTYGEDARLKK-NH2; lactam 10-14) | 1.1 nM | 7.69 | 
9 | CC[C@H](C)[C@H](NC(=O)[C@@H]1CCCN1C(=O)[C@@H](NC(=O)[C@H](Cc1ccccc1)[N+](C)(C)C)C(C)C)C(=O)N[C@@H](Cc1ccccc1)C(=O)N[C@H](C(=O)N[C@@H](Cc1ccc(O)cc1)C(=O)NCC(=O)N[C@@H](CCC(=O)O)C(=O)N[C@H]1CC(=O)NCCCC[C@@H](C(N)=O)NC(=O)[C@H](CC(C)C)NC(=O)[C@@H](CCCNC(=N)N)NC(=O)[C@H](C)NC1=O)[C@@H](C)O [SEQ ID NO:24, cyclo^10,14 [Me3 N^+ Phe^1,Asp^10,Ala^11,D-Arg^12,Leu^13,Lys^14]pMOT(1-14) amide] (X1-VPIFTYGEDA[dR]LK-NH2; lactam 9-13) | 12.6 nM | 7.02 | 
10 | CC[C@H](C)[C@H](NC(=O)[C@@H]1CCCN1C(=O)[C@@H](NC(=O)[C@H](Cc1ccccc1)NC)C(C)C)C(=O)N[C@@H](Cc1ccccc1)C(=O)N[C@H](C(=O)N[C@@H](Cc1ccc(O)cc1)C(=O)NCC(=O)N[C@@H](CCC(=O)O)C(=O)N[C@H]1CC(=O)NCCCC[C@@H](C(=O)N[C@H](CCCCN)C(N)=O)NC(=O)[C@H](CC(C)C)NC(=O)[C@H](CCCNC(=N)N)NC(=O)[C@H](C)NC1=O)[C@@H](C)O [SEQ ID NO:9, cyclo^10,14 [N-MePhe^1,Asp^10,Ala^11,Leu^13,Lys^14,D-Lys^15]pMOT(1-15) amide] (H-[NMeF]VPIFTYGEDARLK[dK]-NH2; lactam 10-14) |  | 7.89 | IC50 (motilin receptor): 0.661 nM
11 | CC[C@H](C)[C@H](NC(=O)[C@@H]1CCCN1C(=O)[C@@H](NC(=O)[C@@H](N)Cc1ccccc1)C(C)C)C(=O)N[C@@H](Cc1ccccc1)C(=O)N[C@H](C(=O)N[C@@H](Cc1ccc(O)cc1)C(=O)NCC(=O)N[C@@H](CCC(=O)O)C(=O)N[C@@H](CC(C)C)C(=O)N[C@@H](CCC(N)=O)C(=O)N[C@@H](CCCN=C(N)N)C(=O)N[C@@H](CC(C)C)C(=O)N[C@@H](CCC(N)=O)C(=O)N[C@@H](CCC(=O)O)C(=O)N[C@@H](CCCCN)C(=O)N[C@@H](CCC(=O)O)C(=O)N[C@@H](CCCN=C(N)N)C(=O)N[C@@H](CC(N)=O)C(=O)N[C@@H](CCCCN)C(=O)NCC(=O)N[C@@H](CCC(N)=O)C(=O)O)[C@@H](C)O [SEQ ID NO:3, [Leu^13]pMOT(1-22), reference compound] (H-FVPIFTYGELQRLQEKERNKGQ-OH) |  |  | half-life at 0.5 mg/ml ([2]; 2% w/v hog kidney homogenate, HEPES pH 7.0, 25° C., 0.5 mg/ml substrate, first-order kinetics, read-out: T1/2): 0.503 h
